# BindingDB's records for doi:10.1016/j.ejmech.2018.06.052 (Cnrs/University of Strasbourg, 2018)
# Experiment: Induction of PHB2-mediated melanogenesis in mouse Melan-a cells assessed as pigmentation after 72 hrs
compound,measurement,value
NCCOCCOCCNc1nc(NCc2cccc(F)c2)nc(Oc2c(F)c(F)c(F)c(F)c2F)n1,EC50,2500 nM
